Measured values taken from PubChem BioAssay (NCI).
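GI50: concentration for 50% inhibition of growth. The concentration for full growth arrest is given as TGI.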

Key:
Assay in all cases: NCI tumour cell line growth inhibition, 384-well format
SF-539 CNS = tested on: SF-539 CNS
OVCAR-5 ovarian = tested on: OVCAR-5 ovarian
SW-620 colon = tested on: SW-620 colon
RXF 393 renal = tested on: RXF 393 renal
UACC-62 melanoma = tested on: UACC-62 melanoma
KM12 colon = tested on: KM12 colon
SF-295 CNS = tested on: SF-295 CNS
SF-268 CNS = tested on: SF-268 CNS
M14 melanoma = tested on: M14 melanoma
HOP-92 NSCLC = tested on: HOP-92 NSCLC
NCI-H23 lung = tested on: NCI-H23 lung
NCI/ADR-RES ovarian = tested on: NCI/ADR-RES ovarian
UO-31 renal = tested on: UO-31 renal
SN12C renal = tested on: SN12C renal
MDA-MB-435 melanoma = tested on: MDA-MB-435 melanoma
HL-60(TB) leukemia = tested on: HL-60(TB) leukemia
HT29 colon = tested on: HT29 colon
TK-10 renal = tested on: TK-10 renal
MOLT-4 leukemia = tested on: MOLT-4 leukemia
SK-OV-3 ovarian = tested on: SK-OV-3 ovarian
HS 578T breast = tested on: HS 578T breast
A498 renal = tested on: A498 renal
PC-3 prostate = tested on: PC-3 prostate
EKVX NSCLC = tested on: EKVX NSCLC
OVCAR-3 ovarian = tested on: OVCAR-3 ovarian
SK-MEL-5 melanoma = tested on: SK-MEL-5 melanoma
SNB-75 CNS = tested on: SNB-75 CNS
HOP-62 NSCLC = tested on: HOP-62 NSCLC
MALME-3M melanoma = tested on: MALME-3M melanoma
IGROV1 ovarian = tested on: IGROV1 ovarian
LOX IMVI melanoma = tested on: LOX IMVI melanoma
SR leukemia = tested on: SR leukemia
COLO 205 colon = tested on: COLO 205 colon
NCI-H460 NSCLC = tested on: NCI-H460 NSCLC
CAKI-1 renal = tested on: CAKI-1 renal
MCF7 breast = tested on: MCF7 breast
NCI-H322M lung = tested on: NCI-H322M lung
786-0 renal = tested on: 786-0 renal
T-47D breast = tested on: T-47D breast
U251 glioblastoma = tested on: U251 glioblastoma
NCI-H522 lung = tested on: NCI-H522 lung
RPMI-8226 leukemia = tested on: RPMI-8226 leukemia
HCT-15 colon = tested on: HCT-15 colon
HCT-116 colon = tested on: HCT-116 colon
SK-MEL-28 melanoma = tested on: SK-MEL-28 melanoma
MDA-MB-468 breast = tested on: MDA-MB-468 breast
BT-549 breast = tested on: BT-549 breast
ACHN renal = tested on: ACHN renal
HCC-2998 colon = tested on: HCC-2998 colon
CCRF-CEM leukemia = tested on: CCRF-CEM leukemia
DU-145 prostate = tested on: DU-145 prostate
OVCAR-8 ovarian = tested on: OVCAR-8 ovarian
SNB-19 CNS = tested on: SNB-19 CNS
NCI-H226 lung = tested on: NCI-H226 lung
MDA-MB-231 breast = tested on: MDA-MB-231 breast
OVCAR-4 ovarian = tested on: OVCAR-4 ovarian
UACC-257 melanoma = tested on: UACC-257 melanoma
A549 NSCLC = tested on: A549 NSCLC

CN1CC[C@@H](NC(=O)Nc2ccc(C#N)cc2)C[C@@H]1c1nc2ccccc2[nH]1
GI50 (SF-539 CNS): > 100 µM
TGI (SF-539 CNS): > 100 µM
GI50 (OVCAR-5 ovarian): > 87.8 µM
TGI (OVCAR-5 ovarian): > 100 µM
GI50 (SW-620 colon): > 100 µM
TGI (SW-620 colon): > 100 µM
GI50 (RXF 393 renal): > 46.8 µM
TGI (RXF 393 renal): > 86.7 µM
GI50 (UACC-62 melanoma): > 61.8 µM
TGI (UACC-62 melanoma): > 100 µM
GI50 (KM12 colon): > 100 µM
TGI (KM12 colon): > 100 µM
GI50 (SF-295 CNS): > 80.7 µM
TGI (SF-295 CNS): > 100 µM
GI50 (SF-268 CNS): > 86.7 µM
TGI (SF-268 CNS): > 100 µM
GI50 (M14 melanoma): > 100 µM
TGI (M14 melanoma): > 100 µM
GI50 (HOP-92 NSCLC): 39.5 µM
TGI (HOP-92 NSCLC): 97.4 µM
GI50 (NCI-H23 lung): > 75.2 µM
TGI (NCI-H23 lung): > 100 µM
GI50 (NCI/ADR-RES ovarian): > 100 µM
TGI (NCI/ADR-RES ovarian): > 100 µM
GI50 (UO-31 renal): > 88.5 µM
TGI (UO-31 renal): > 100 µM
GI50 (SN12C renal): > 100 µM
TGI (SN12C renal): > 100 µM
GI50 (MDA-MB-435 melanoma): > 100 µM
TGI (MDA-MB-435 melanoma): > 100 µM
GI50 (HL-60(TB) leukemia): > 87.7 µM
TGI (HL-60(TB) leukemia): > 100 µM
GI50 (HT29 colon): 69.3 µM
TGI (HT29 colon): > 100 µM
GI50 (TK-10 renal): > 100 µM
TGI (TK-10 renal): > 100 µM
GI50 (MOLT-4 leukemia): 18.2 µM
TGI (MOLT-4 leukemia): 36.4 µM
GI50 (SK-OV-3 ovarian): > 100 µM
TGI (SK-OV-3 ovarian): > 100 µM
GI50 (HS 578T breast): > 60 µM
TGI (HS 578T breast): > 100 µM
GI50 (A498 renal): > 85.2 µM
TGI (A498 renal): > 100 µM
GI50 (PC-3 prostate): > 100 µM
TGI (PC-3 prostate): > 100 µM
GI50 (EKVX NSCLC): > 93.7 µM
TGI (EKVX NSCLC): > 100 µM
GI50 (OVCAR-3 ovarian): > 67.4 µM
TGI (OVCAR-3 ovarian): > 100 µM
GI50 (SK-MEL-5 melanoma): 18.2 µM
TGI (SK-MEL-5 melanoma): > 100 µM
GI50 (SNB-75 CNS): > 58.6 µM
TGI (SNB-75 CNS): > 95.9 µM
GI50 (HOP-62 NSCLC): > 100 µM
TGI (HOP-62 NSCLC): > 100 µM
GI50 (MALME-3M melanoma): 24.4 µM
TGI (MALME-3M melanoma): > 61.4 µM
GI50 (IGROV1 ovarian): 75.1 µM
TGI (IGROV1 ovarian): > 100 µM
GI50 (LOX IMVI melanoma): > 100 µM
TGI (LOX IMVI melanoma): > 100 µM
GI50 (SR leukemia): 23.4 µM
TGI (SR leukemia): 65.2 µM
GI50 (COLO 205 colon): > 85.1 µM
TGI (COLO 205 colon): > 100 µM
GI50 (NCI-H460 NSCLC): > 100 µM
TGI (NCI-H460 NSCLC): > 100 µM
GI50 (CAKI-1 renal): > 100 µM
TGI (CAKI-1 renal): > 100 µM
GI50 (MCF7 breast): > 72.1 µM
TGI (MCF7 breast): > 100 µM
GI50 (NCI-H322M lung): > 100 µM
TGI (NCI-H322M lung): > 100 µM
GI50 (786-0 renal): 40.4 µM
TGI (786-0 renal): > 100 µM
GI50 (T-47D breast): 37.9 µM
TGI (T-47D breast): > 100 µM
GI50 (U251 glioblastoma): > 100 µM
TGI (U251 glioblastoma): > 100 µM
GI50 (NCI-H522 lung): > 79.8 µM
TGI (NCI-H522 lung): > 100 µM
GI50 (RPMI-8226 leukemia): 54.2 µM
TGI (RPMI-8226 leukemia): > 100 µM
GI50 (HCT-15 colon): > 87.8 µM
TGI (HCT-15 colon): > 100 µM
GI50 (HCT-116 colon): 61.2 µM
TGI (HCT-116 colon): > 100 µM
GI50 (SK-MEL-28 melanoma): > 82.8 µM
TGI (SK-MEL-28 melanoma): > 100 µM
GI50 (MDA-MB-468 breast): 32.9 µM
TGI (MDA-MB-468 breast): > 95.9 µM
GI50 (BT-549 breast): > 49.4 µM
TGI (BT-549 breast): > 93.7 µM
GI50 (ACHN renal): > 84.7 µM
TGI (ACHN renal): > 100 µM
GI50 (HCC-2998 colon): 47.7 µM
TGI (HCC-2998 colon): > 100 µM
GI50 (CCRF-CEM leukemia): 74.7 µM
TGI (CCRF-CEM leukemia): > 100 µM
GI50 (DU-145 prostate): 73.8 µM
TGI (DU-145 prostate): > 100 µM
GI50 (OVCAR-8 ovarian): > 100 µM
TGI (OVCAR-8 ovarian): > 100 µM
GI50 (SNB-19 CNS): > 100 µM
TGI (SNB-19 CNS): > 100 µM
GI50 (NCI-H226 lung): > 59.6 µM
TGI (NCI-H226 lung): > 100 µM
GI50 (MDA-MB-231 breast): 61.4 µM
TGI (MDA-MB-231 breast): > 100 µM
GI50 (OVCAR-4 ovarian): 92.4 µM
TGI (OVCAR-4 ovarian): > 100 µM
GI50 (UACC-257 melanoma): > 89.3 µM
TGI (UACC-257 melanoma): > 100 µM
GI50 (A549 NSCLC): > 87.9 µM
TGI (A549 NSCLC): > 100 µM
